Laboratory results as given in ChEMBL document CHEMBL1255171.
Active and inactive are the calls of the source. The calls are words filed in the database; no cut-off is given here. Where a SMILES comes first, the peptide text is derived from it. Bridges are numbered along the chain shown (N, C = ends).

Legend:
[1] = target: Secretin receptor (Homo sapiens) (UniProt P47872); assay: Agonist activity at secretin receptor expressed in CHO cells assessed as increase of cAMP level at 1 uM; format: functional, cell-based
[2] = target: Secretin receptor (Homo sapiens) (UniProt P47872); assay: Displacement of [125I]-secretin-27 from secretin receptor expressed in CHO cells at 1 uM by gamma-spectrometer analysis; format: cell-based

Chain of Secretin receptor (Homo sapiens) (P47872 whole entry): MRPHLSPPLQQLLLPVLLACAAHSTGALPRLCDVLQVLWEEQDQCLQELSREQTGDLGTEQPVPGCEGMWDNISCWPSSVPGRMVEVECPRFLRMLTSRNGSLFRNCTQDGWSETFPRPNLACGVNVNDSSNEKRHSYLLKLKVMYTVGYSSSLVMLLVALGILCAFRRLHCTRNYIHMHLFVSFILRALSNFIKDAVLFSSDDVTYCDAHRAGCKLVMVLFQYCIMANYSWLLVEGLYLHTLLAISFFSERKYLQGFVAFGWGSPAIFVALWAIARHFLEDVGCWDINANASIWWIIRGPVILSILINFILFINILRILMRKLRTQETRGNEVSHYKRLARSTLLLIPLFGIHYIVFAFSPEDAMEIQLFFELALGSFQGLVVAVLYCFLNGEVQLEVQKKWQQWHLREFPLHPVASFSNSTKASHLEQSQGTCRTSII

## CC(C)C[C@H](NC(=O)CNC(=O)[C@H](CCC(N)=O)NC(=O)[C@H](CC(C)C)NC(=O)[C@H](CC(C)C)NC(=O)[C@H](CCCNC(=N)N)NC(=O)[C@H](CCC(N)=O)NC(=O)[C@H](CC(C)C)NC(=O)[C@H](CCCNC(=N)N)NC(=O)[C@H](C)NC(=O)[C@H](CO)NC(=O)[C@H](CC(=O)O)NC(=O)[C@H](CCC(N)=O)NC(=O)[C@H](CC(C)C)NC(=O)[C@H](CCCNC(=N)N)NC(=O)[C@H](CO)NC(=O)[C@H](Cc1ccc(O)cc1)NC(=O)[C@H](CCC(=O)O)NC(=O)[C@H](CO)NC(=O)[C@@H](NC(=O)[C@H](Cc1ccccc1)NC(=O)[C@@H]1CSSC[C@H](NC(=O)[C@H](CO)NC(=O)[C@@H](N)Cc2cnc[nH]2)C(=O)NCC(=O)N1)[C@@H](C)O)C(=O)N[C@H](C(N)=O)C(C)C (H-HSCGCFTSEYSRLQDSARLQRLLQGLV-NH2; disulfide 3-5)
[1]
  Activity: Active
[2]
  Activity: Active

## CC(C)C[C@H](NC(=O)CNC(=O)[C@H](CCC(N)=O)NC(=O)[C@H](CC(C)C)NC(=O)[C@H](CC(C)C)NC(=O)[C@H](CCCNC(=N)N)NC(=O)[C@H](CCC(N)=O)NC(=O)[C@H](CC(C)C)NC(=O)[C@H](CCCNC(=N)N)NC(=O)[C@H](C)NC(=O)[C@H](CO)NC(=O)[C@H](CC(=O)O)NC(=O)[C@H](CCC(N)=O)NC(=O)[C@H](CC(C)C)NC(=O)[C@H](CCCNC(=N)N)NC(=O)[C@H](CO)NC(=O)[C@H](Cc1ccc(O)cc1)NC(=O)[C@H](CCC(=O)O)NC(=O)[C@H](CO)NC(=O)[C@@H]1CSSC[C@H](NC(=O)[C@H](CC(=O)O)NC(=O)[C@H](CO)NC(=O)[C@@H](N)Cc2cnc[nH]2)C(=O)N[C@@H]([C@@H](C)O)C(=O)N[C@@H](Cc2ccccc2)C(=O)N1)C(=O)N[C@H](C(N)=O)C(C)C (H-HSDCTFCSEYSRLQDSARLQRLLQGLV-NH2; disulfide 4-7)
[1]
  Activity: Active
[2]
  Activity: Active

## CC(C)C[C@H](NC(=O)CNC(=O)[C@H](CCC(N)=O)NC(=O)[C@H](CC(C)C)NC(=O)[C@H](CC(C)C)NC(=O)[C@H](CCCNC(=N)N)NC(=O)[C@H](CCC(N)=O)NC(=O)[C@H](CC(C)C)NC(=O)[C@H](CCCNC(=N)N)NC(=O)[C@H](C)NC(=O)[C@H](CO)NC(=O)[C@H](CC(=O)O)NC(=O)[C@H](CCC(N)=O)NC(=O)[C@H](CC(C)C)NC(=O)[C@H](CCCNC(=N)N)NC(=O)[C@H](CO)NC(=O)[C@H](Cc1ccc(O)cc1)NC(=O)[C@@H]1CSSC[C@H](NC(=O)[C@H](Cc2ccccc2)NC(=O)[C@@H](NC(=O)CNC(=O)[C@H](CC(=O)O)NC(=O)[C@H](CO)NC(=O)[C@@H](N)Cc2cnc[nH]2)[C@@H](C)O)C(=O)N[C@@H](CO)C(=O)N1)C(=O)N[C@H](C(N)=O)C(C)C (H-HSDGTFCSCYSRLQDSARLQRLLQGLV-NH2; disulfide 7-9)
[1]
  Activity: Active
